Our source for the Ki and EC50 values is patent US8802663B2, “Pyrazole oxadiazole derivatives as S1P1 agonists” (Merck Serono SA, priority 2009, dated 2014).

Test [1] concerns the target T1, S1P1 (Homo sapiens (Human), UniProt P21453). Briefly: Receptor binding assay, [33P]sphingosine 1-phosphate, membranes from CHO cells expressing S1P1. As to conditions: CHO cell membranes, 25 pM [33P]sphingosine 1-phosphate. Here is the method:
(§1) Receptor binding assay: Membranes were prepared from CHO cells expressing S1P1 or S1P3 for use in ligand and […] binding studies. Cells were suspended in 50 mM TRIS, pH 7.4, 2 mM EDTA, 250 mM Sucrose (buffer A) and 1× Complete protease inhibitor cocktail (Roche), and disrupted at 4° C. by N2 decompression using a cell disruption bomb (Parr Instrument). Following centrifugation at 1000 RPM for 10 min at 4° C., the supernatant was suspended in buffer A and centrifuged again at 19000 RPM for 60 min at 4° C. The pellet was then suspended in 10 mM HEPES, pH 7.4, 1 mM EDTA, 250 mM Sucrose (Buffer B), and 1× Complete EDTA-free protease inhibitor cocktail and homogenized using a potter. Membranes were flash frozen in liquid N2 and stored at −80° C. [33P]sphingosine 1-phosphate (3000 Ci/mmol; American Radiolabeled Chemicals, Inc.) was added to test compounds in DMSO. Membranes and WGA SPA beads (GE Healthcare) were added to give a final volume of 100 μl in 96-well plates with assay concentrations of 25 pM or 10 pM [33P]sphingosine 1-phosphate (respectively for S1P1 or S1P3), 50 mM HEPES, pH 7.5, 5 mM MgCl2, 100 mM NaCl, 0.4% fatty acid-free BSA, 1-5 μg/well of proteins and 100 μg/well of WGA SPA beads. Binding was performed for 60 min at RT on a shaker and bound radioactivity was measured on a PerkinElmer 1450 MicroBeta counter. Specific binding was calculated by subtracting remaining radioactivity in the presence of 1000-fold excess of unlabeled SIP. Binding data were analyzed using the GraphPad Prism program.

For test [2], the target named is T1, S1P1. Description: 35S-GTPγS binding, membranes from CHO cells expressing S1P1. In kind it is biochemical. The conditions noted are these: CHO cell membranes. In general terms: GTPγS resists hydrolysis and so accumulates on activated G proteins.
Another test has as its target S1P3 (Homo sapiens (Human), UniProt Q99500). Briefly: 35S-GTPγS binding, membranes from CHO cells expressing S1P3. As to conditions: CHO cell membranes. In kind it is biochemical. As to the method:
as §1
Measurements of 35S-GTPγS Binding: Membranes (1 to 10 μg protein) prepared as described above, were incubated in 96-well Scintiplates (PerkinElmer) with test compounds diluted in DMSO, in 180 μl of 20 mM HEPES, pH 7.4, 10 mM MgCl2, 2 μg/well Saponin, 0.2% fatty acid free BSA (Assay buffer), 140 mM NaCl and 1.7 μM GDP. The assay was initiated with the addition of 20 μl of 1.5 nM [35S]-GTPγS (1100 Ci/mmol; GE Healthcare) in assay buffer. After 60 min incubation at 30° C. on a shaker, plates were centrifuged for 10 min at 2000 RPM. Supernatant was discarded and membrane bound radioactivity was measured on a PerkinElmer 1450 MicroBeta counter. Triplicate samples were averaged and expressed as % response relative to S1P activation in absence of compound (n=2).

Structures can show the parent of a compound that is named as a salt.

S1P3, sequence (Q99500 whole entry, species assumed): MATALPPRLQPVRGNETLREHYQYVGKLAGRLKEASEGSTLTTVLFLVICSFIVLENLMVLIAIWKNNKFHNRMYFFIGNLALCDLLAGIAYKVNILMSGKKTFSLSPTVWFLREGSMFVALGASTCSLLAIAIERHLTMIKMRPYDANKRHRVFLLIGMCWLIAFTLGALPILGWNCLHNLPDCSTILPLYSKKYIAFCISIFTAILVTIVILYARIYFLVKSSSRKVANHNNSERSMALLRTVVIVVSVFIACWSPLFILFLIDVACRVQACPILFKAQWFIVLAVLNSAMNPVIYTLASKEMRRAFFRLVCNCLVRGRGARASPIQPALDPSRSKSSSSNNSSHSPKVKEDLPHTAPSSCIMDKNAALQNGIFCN
T1 sequence (P21453 whole entry, species assumed): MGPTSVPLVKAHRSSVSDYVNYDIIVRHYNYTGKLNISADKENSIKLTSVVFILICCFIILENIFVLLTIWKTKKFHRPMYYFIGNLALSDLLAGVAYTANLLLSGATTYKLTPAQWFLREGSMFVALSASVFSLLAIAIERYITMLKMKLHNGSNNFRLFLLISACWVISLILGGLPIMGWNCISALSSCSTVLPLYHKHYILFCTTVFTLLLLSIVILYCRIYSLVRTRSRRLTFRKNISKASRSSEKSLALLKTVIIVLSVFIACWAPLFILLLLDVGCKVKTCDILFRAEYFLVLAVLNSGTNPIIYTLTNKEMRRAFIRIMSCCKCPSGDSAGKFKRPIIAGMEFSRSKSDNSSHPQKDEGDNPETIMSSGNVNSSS

Turning to `COCc1c(-c2nc(-c3cc(F)ccc3F)no2)cnn1-c1ccccc1` [Example 1, 3-(2,5-difluorophenyl)-5-(5-(methoxymethyl)-1-phenyl-1H-pyrazol-4-yl)-1,2,4-oxadiazole], affinity at S1P1 [1] was put at a Ki of 272 nM. Further, the EC50 (in general, the concentration at which the effect is half-maximal) on S1P1 [2] is 304 nM; on S1P3, > 20000 nM.
As to `CS(=O)(=O)c1cccc(-c2noc(-c3cnn(-c4ccccc4F)c3-c3ccncc3)n2)c1` [Example 9, 4-(1-(2-fluorophenyl)-4-{3-[3-(methylsulfonyl)phenyl]-1,2,4-oxadiazol-5-yl}-1H-pyrazol-5-yl)pyridine], affinity on S1P1 [1] was put at a Ki of 5 nM. The EC50 at S1P1 [2] is 28 nM; on S1P3, > 20000 nM.
The corresponding values for `Fc1ccc(F)c(-c2noc(-c3cnn(C4CCCCC4)c3-c3ccccc3)n2)c1` [Example 11] are 9 nM, 6 nM and 142 nM.
Consider `FC(F)(F)c1cccc(-c2noc(-c3cnn(C4CCCCC4)c3-c3ccncc3)n2)c1` [Example 28, 4-(1-cyclohexyl-4-{3-[3-(trifluoromethyl)phenyl]-1,2,4-oxadiazol-5-yl}-1H-pyrazol-5-yl)pyridine], for which the values for the concentration giving a half-maximal response (EC50) on S1P1 [2] and on S1P3 were 16 nM and 2660 nM, respectively.
Consider `Fc1ccc(F)c(-c2noc(-c3cnn(C4CCCCC4)c3C3CCOCC3)n2)c1` [Example 31, 5-[1-cyclohexyl-5-(tetrahydro-2H-pyran-4-yl)-1H-pyrazol-4-yl]-3-(2,5-difluorophenyl)-1,2,4-oxadiazole], for which the values for the EC50 on S1P1 [2] and at S1P3 were 12 nM and > 20000 nM, respectively.
On the same counts, the results for `CC1CCCCC1n1ncc(-c2nc(-c3cc(F)ccc3F)no2)c1-c1ccncc1` (stereo not drawn) [Example 34, 4-[4-[3-(2,5-difluorophenyl)-1,2,4-oxadiazol-5-yl]-1-(2-methylcyclohexyl)-1H-pyrazol-5-yl]pyridine] are 6 nM and 1610 nM.
Turning to `CC(C)Cn1ncc(-c2nc(-c3cccc(C(F)(F)F)c3)no2)c1-c1ccncc1` [Example 37, 4-(1-isobutyl-4-{3-[3-(trifluoromethyl)phenyl]-1,2,4-oxadiazol-5-yl}-1H-pyrazol-5-yl)pyridine], the EC50 on S1P1 [2] was 9 nM; on S1P3 it was > 20000 nM.
In the case of `c1cc(-c2c(-c3nc(-c4ccc5[nH]ncc5c4)no3)cnn2C2CCCCC2)ccn1` [Example 38, 5-[5-(1-cyclohexyl-5-pyridin-4-yl-1H-pyrazol-4-yl)-1,2,4-oxadiazol-3-yl]-1H-indazole], the affinity on S1P1 [1], expressed as Ki, was 68 nM. Also, the EC50 on S1P1 [2] turned out to be 3 nM; at S1P3 it was 474 nM.
As to `CC(C)Cn1ncc(-c2nc(-c3ccc4[nH]ncc4c3)no2)c1-c1ccncc1` [Example 40, 5-[5-(1-isobutyl-5-pyridin-4-yl-1H-pyrazol-4-yl)-1,2,4-oxadiazol-3-yl]-1H-indazole], the EC50 on S1P1 [2] was found to be 11 nM; on S1P3 it was 523 nM.
For `CN(C)Cc1ccc(-c2noc(-c3cnn(C4CCCCC4)c3-c3ccncc3)n2)cc1` [Example 41, 1-{4-[5-(1-cyclohexyl-5-pyridin-4-yl-1H-pyrazol-4-yl)-1,2,4-oxadiazol-3-yl]phenyl}-N,N-dimethylmethanamine], the EC50 at S1P1 [2] turned out to be 9 nM; on S1P3, 486 nM.
On the same counts, the results for `O=C(O)C1CN(Cc2ccc(-c3noc(-c4cnn(C5CCCCC5)c4-c4ccncc4)n3)cc2)C1` [Example 42, 1-{4-[5-(1-cyclohexyl-5-pyridin-4-yl-1H-pyrazol-4-yl)-1,2,4-oxadiazol-3-yl]benzyl}azetidine-3-carboxylic acid] are 1 nM and 1020 nM.
On the same counts, the results for `C[C@@H]1CCCC[C@@H]1n1ncc(-c2nc(-c3cc(F)ccc3F)no2)c1-c1ccccc1` [Example 47, 3-(2,5-difluorophenyl)-5-{1[(1S,2R)-2-methylcyclohexyl]-5-phenyl-1H-pyrazol-4-yl}-1,2,4-oxadiazole] are 8 nM and 571 nM.
With `CC(C)Cn1ncc(-c2nc(-c3ccc(CN4CC(C(=O)O)C4)cc3)no2)c1-c1ccncc1` [Example 79, 1-(4-(5-(1-isobutyl-5-(pyridin-4-yl)-1H-pyrazol-4-yl)-1,2,4-oxadiazol-3-yl)benzyl)azetidine-3-carboxylic acid], on S1P1 [1], the affinity corresponds to a Ki of 2.3 nM. Besides, the EC50 was found to be 9.5 nM on S1P1 [2] and 1470 nM on S1P3.
Regarding `CC(C)Cn1ncc(-c2nc(-c3ccc(CNCCC(=O)O)cc3)no2)c1-c1ccncc1` [Example 89, 3-(4-(5-(1-isobutyl-5-(pyridin-4-yl)-1H-pyrazol-4-yl)-1,2,4-oxadiazol-3-yl)benzylamino)propanoic acid], the EC50 at S1P1 [2] was found to be 12 nM; on S1P3, 1640 nM.
On the same counts, the results for `c1cc(-c2c(-c3nc(-c4ccc(Cn5cncn5)cc4)no3)cnn2C2CCCCC2)ccn1` [Example 91, 3-(4-((1H-1,2,4-triazol-1-yl)methyl)phenyl)-5-(1-cyclohexyl-5-(pyridin-4-yl)-1H-pyrazol-4-yl)-1,2,4-oxadiazole] are 8.5 nM and 147 nM.
Turning to `CC(C)Cn1ncc(-c2nc(-c3ccc(CN4CC(C(=O)O)C4)cc3)no2)c1C1CCOCC1` [Example 96, 1-(4-(5-(1-isobutyl-5-(tetrahydro-2H-pyran-4-yl)-1H-pyrazol-4-yl)-1,2,4-oxadiazol-3-yl)benzyl)azetidine-3-carboxylic acid], on S1P1 [1], the affinity, expressed as Ki, was 6.5 nM. Besides, the values for the EC50 on S1P1 [2] and on S1P3 were 31 nM and 2250 nM, respectively.
The corresponding values for `O=C(O)C1CN(Cc2ccc(-c3noc(-c4cnn(C5CCCCC5)c4C4CCOCC4)n3)cc2)C1` [Example 97, 1-(4-(5-(1-cyclohexyl-5-(tetrahydro-2H-pyran-4-yl)-1H-pyrazol-4-yl)-1,2,4-oxadiazol-3-yl)benzyl)azetidine-3-carboxylic acid] are 0.7 nM, 1.4 nM and 138 nM.
The corresponding values for `O=C(O)C1CN(Cc2ccc(-c3noc(-c4cnn(CC5CC5)c4-c4ccncc4)n3)cc2)C1` [Example 101, 1-(4-(5-(1-(cyclopropylmethyl)-5-(pyridin-4-yl)-1H-pyrazol-4-yl)-1,2,4-oxadiazol-3-yl)benzyl)azetidine 3-carboxylic acid, formate] are 1.8 nM, 12 nM and 1620 nM.
The corresponding values for `O=C(O)CCNCc1ccc(-c2noc(-c3cnn(C4CCCCC4)c3C3CCOCC3)n2)cc1` [Example 102, 3-(4-(5-(1-cyclohexyl-5-(tetrahydro-2H-pyran-4-yl)-1H-pyrazol-4-yl)-1,2,4-oxadiazol-3-yl)benzylamino)propanoic acid] are 0.8 nM, 2.1 nM and 214 nM.
Take `OCc1ccc(-c2noc(-c3cnn(C4CCCCC4)c3C3CCCO3)n2)cc1` (stereo not drawn) [Example 117, (4-(5-(1-cyclohexyl-5-(tetrahydrofuran-2-yl)-1H-pyrazol-4-yl)-1,2,4-oxadiazol-3-yl)phenyl)methanol]: the Ki (in general, the dissociation constant of the complex between target and ligand, obtained from inhibition or displacement) at S1P1 [1] is 2 nM. For the same compound, the results for the concentration giving a half-maximal response (EC50) at S1P1 [2] and on S1P3 were 11 nM and 622 nM, respectively.
The corresponding values for `COCCc1c(-c2nc(-c3ccc(CN4CC(C(=O)O)C4)cc3)no2)cnn1C1CCCCC1` [Example 120, 1-(4-(5-(1-cyclohexyl-5-(2-methoxyethyl)-1H-pyrazol-4-yl)-1,2,4-oxadiazol-3-yl)benzyl)azetidine-3-carboxylic acid] are 0.1 nM, 0.5 nM and 489 nM.
`O=C(O)C1CCN(Cc2ccc(-c3noc(-c4cnn(C5CCCCC5)c4C4CCCO4)n3)cc2)CC1` (stereo not drawn) [Example 125, 1-(4-(5-(1-cyclohexyl-5-(tetrahydrofuran-2-yl)-1H-pyrazol-4-yl)-1,2,4-oxadiazol-3-yl)benzyl)piperidine-4-carboxylic acid] had a Ki at S1P1 [1] of 0.6 nM. Besides, the figures for the EC50 at S1P1 [2] and on S1P3 were 1.9 nM and 427 nM, respectively.
Compound `c1cc(-c2c(-c3nc(-c4ccc(Cn5ccnc5)cc4)no3)cnn2C2CCCCC2)ccn1` [Example 136, 4-{2-Cyclohexyl-4-[3-(4-imidazol-1-ylmethyl-phenyl)-[1,2,4]oxadiazol-5-yl]-2H-pyrazol-3-yl}-pyridine] yielded an EC50 at S1P3 of 58.3 nM.
